Measured values from ChEMBL document CHEMBL1201862, “PubChem BioAssay data set” (2004).
Several values for one entry are separate records, joined by “and”; a condition that tells them apart may be missing. Identical values can stand only once. Activity calls are given as the source filed them.

Tests used:
[1] = biological target: UDP-galactopyranose mutase (Mycobacterium tuberculosis, UniProt P9WIQ1); assay: Inhibitors of Mycobacterium tuberculosis UDP-galactopyranose mutase (UGM) enzyme Measured in Biochemical System Using Plate Reader - 2105-02_Inhibitor_Dose_CherryPick_Activity. [Related pubchem assays (depositor defined):AID504439]
[2] = biological target: Genome polyprotein (Hepatitis C virus, UniProt Q2Q167); assay: HCV core protein dimerization inhibitors, dose response, biochemical, TR-FRET (AID 2159); design: species or system Hepacivirus hominis;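 also: blocks dimerization of HCV core protein measured by TR-FRET between tagged core106 pairs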
[3] = biological target: T1, Bcl-2-like protein 10 (Homo sapiens, UniProt Q9HD36); assay: displacers of TR3 peptide from Bcl-B, primary screen, selectivity assay for Bfl-1 inhibitor project, biochemical, fluorescence polarization, FITC-TR3 peptide (AID 748);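 also: fluorescence polarization from a fluorescein-labelled TR3 peptide binding purified Bcl-B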
T1 sequence (Q9HD36 whole entry): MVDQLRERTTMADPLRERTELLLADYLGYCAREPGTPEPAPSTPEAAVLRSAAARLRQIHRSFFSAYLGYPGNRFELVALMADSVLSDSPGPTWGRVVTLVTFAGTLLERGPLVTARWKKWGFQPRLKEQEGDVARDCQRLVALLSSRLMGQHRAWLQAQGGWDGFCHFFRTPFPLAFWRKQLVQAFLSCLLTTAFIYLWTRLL

[4] = biological target: Protein Rev (Human immunodeficiency virus type 1 group M subtype B (isolate WMJ22)(HIV-1), UniProt P05866); assay: HIV-1 Rev-RRE RNA binding disruptors, dose response, biochemical, protein-RNA interaction (AID 842); design: species or system Human immunodeficiency virus 1
[5] = biological target: T2, SUMO-activating enzyme (Homo sapiens, UniProt Q9UBT2); assay: SUMOylation inhibitor hit validation, confirmation, SUMOylation inhibitor project, biochemical, AlphaScreen (AID 2018); format: functional
[6] = biological target: T3, Voltage-gated N-type calcium channel alpha-1B subunit/Amyloid beta A4 precursor protein-binding family A member 1 (Homo sapiens, UniProt Q00975+Q02410); format: protein assay
[7] = biological target: T2, SUMO-activating enzyme; assay: inhibitors of in vitro SUMOylation cascade, primary screen, biochemical, HTRF, uHTS (AID 2006); format: protein-complex assay
[8] = biological target: T3, Voltage-gated N-type calcium channel alpha-1B subunit/Amyloid beta A4 precursor protein-binding family A member 1; format: protein assay; remark: listed apart in the source
[9] = biological target: Protein-tyrosine kinase 2-beta (Homo sapiens, UniProt Q14289);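 also: potency of inhibitors of PYK2 kinase phosphorylation of poly-GT substrate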
[10] = biological target: SUMO E1/E2 (Homo sapiens, UniProt P63279+Q9UBE0+Q9UBT2); assay: SAR analysis of SUMOylation using HTRF in an in-Vitro dose response assay. [Related pubchem assays (depositor defined):AID2006, AID2011, AID2018, AID2069, AID2658]; format: functional
[11] = biological target: T3, Voltage-gated N-type calcium channel alpha-1B subunit/Amyloid beta A4 precursor protein-binding family A member 1; assay: disruptors of Mint-PDZ/N-type channel peptide interaction – biochemical, HTRF, set 2, SAR follow-up (AID 434980); format: functional
[12] = biological target: T3, Voltage-gated N-type calcium channel alpha-1B subunit/Amyloid beta A4 precursor protein-binding family A member 1; assay: disruptors of Mint-PDZ/N-type channel peptide interaction – biochemical, HTRF, SAR follow-up (AID 2489); format: functional
[13] = biological target: DNA (cytosine-5)-methyltransferase 1 (Homo sapiens, UniProt P26358); assay: DNMT1 methyltransferase inhibitors, confirmation, biochemical, fluorescent molecular beacon (AID 602386); format: functional
[14] = biological target: T4, Probable nicotinate-nucleotide adenylyltransferase (Staphylococcus aureus (strain N315), UniProt P65502); format: functional, Staphylococcus aureus subsp. aureus N315;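 as to IC50 Mean: confirmatory dose-response retesting of NadD inhibitor hits first found in an ultra-high-throughput screen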
[15] = biological target: T4, Probable nicotinate-nucleotide adenylyltransferase; format: functional, Staphylococcus aureus subsp. aureus N315; details: read-out: IC50_Mean
[16] = biological target: T5, Rac GTPase-activating protein 1 (Homo sapiens, UniProt Q9H0H5); assay: MgcRacGAP GTPase-activating activity inhibitors, confirmation, biochemical, ADP Hunter fluorescence, primary and confirmatory (AID 624330); format: functional
T5 sequence (Q9H0H5 whole entry): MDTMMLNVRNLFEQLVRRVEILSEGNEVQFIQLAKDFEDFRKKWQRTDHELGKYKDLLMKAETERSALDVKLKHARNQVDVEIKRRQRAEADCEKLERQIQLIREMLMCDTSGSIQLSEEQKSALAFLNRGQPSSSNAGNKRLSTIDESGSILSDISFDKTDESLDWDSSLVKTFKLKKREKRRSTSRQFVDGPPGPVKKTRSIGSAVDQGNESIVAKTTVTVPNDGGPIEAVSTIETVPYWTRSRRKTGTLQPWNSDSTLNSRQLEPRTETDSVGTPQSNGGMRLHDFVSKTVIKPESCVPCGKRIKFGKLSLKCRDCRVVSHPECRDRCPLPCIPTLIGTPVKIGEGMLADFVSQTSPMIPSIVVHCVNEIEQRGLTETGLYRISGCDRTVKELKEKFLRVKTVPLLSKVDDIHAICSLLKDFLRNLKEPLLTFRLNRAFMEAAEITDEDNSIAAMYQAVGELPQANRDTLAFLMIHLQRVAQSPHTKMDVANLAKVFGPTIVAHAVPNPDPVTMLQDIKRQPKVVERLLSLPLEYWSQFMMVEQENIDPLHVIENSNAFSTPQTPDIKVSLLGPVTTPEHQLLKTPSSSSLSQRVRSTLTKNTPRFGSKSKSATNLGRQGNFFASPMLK

[17] = biological target: Albumin (Bos taurus, UniProt P02769); assay: Counterscreen for inhibitors of T-cell receptor (TCR)-CD3 interaction: Fluorescence-based biochemical high throughput dose response assay to identify inhibitors of T-cell receptor (TCR)-CD3 interaction using a TAMRA-labeled BSA probe.; format: functional
[18] = biological target: T6, ORF 73 (Human herpesvirus 8, UniProt O40947); assay: inhibitors of C-LANA binding to LBS DNA, dose response, biochemical, fluorescence polarization, cherry-picked samples (AID 504725); design: species or system Human gammaherpesvirus 8;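 also: fluorescence polarization of a labeled DNA duplex reporting LANA DNA binding; potency is for inhibitors that block LANA binding to the DNA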
T6 sequence (O40947 whole entry): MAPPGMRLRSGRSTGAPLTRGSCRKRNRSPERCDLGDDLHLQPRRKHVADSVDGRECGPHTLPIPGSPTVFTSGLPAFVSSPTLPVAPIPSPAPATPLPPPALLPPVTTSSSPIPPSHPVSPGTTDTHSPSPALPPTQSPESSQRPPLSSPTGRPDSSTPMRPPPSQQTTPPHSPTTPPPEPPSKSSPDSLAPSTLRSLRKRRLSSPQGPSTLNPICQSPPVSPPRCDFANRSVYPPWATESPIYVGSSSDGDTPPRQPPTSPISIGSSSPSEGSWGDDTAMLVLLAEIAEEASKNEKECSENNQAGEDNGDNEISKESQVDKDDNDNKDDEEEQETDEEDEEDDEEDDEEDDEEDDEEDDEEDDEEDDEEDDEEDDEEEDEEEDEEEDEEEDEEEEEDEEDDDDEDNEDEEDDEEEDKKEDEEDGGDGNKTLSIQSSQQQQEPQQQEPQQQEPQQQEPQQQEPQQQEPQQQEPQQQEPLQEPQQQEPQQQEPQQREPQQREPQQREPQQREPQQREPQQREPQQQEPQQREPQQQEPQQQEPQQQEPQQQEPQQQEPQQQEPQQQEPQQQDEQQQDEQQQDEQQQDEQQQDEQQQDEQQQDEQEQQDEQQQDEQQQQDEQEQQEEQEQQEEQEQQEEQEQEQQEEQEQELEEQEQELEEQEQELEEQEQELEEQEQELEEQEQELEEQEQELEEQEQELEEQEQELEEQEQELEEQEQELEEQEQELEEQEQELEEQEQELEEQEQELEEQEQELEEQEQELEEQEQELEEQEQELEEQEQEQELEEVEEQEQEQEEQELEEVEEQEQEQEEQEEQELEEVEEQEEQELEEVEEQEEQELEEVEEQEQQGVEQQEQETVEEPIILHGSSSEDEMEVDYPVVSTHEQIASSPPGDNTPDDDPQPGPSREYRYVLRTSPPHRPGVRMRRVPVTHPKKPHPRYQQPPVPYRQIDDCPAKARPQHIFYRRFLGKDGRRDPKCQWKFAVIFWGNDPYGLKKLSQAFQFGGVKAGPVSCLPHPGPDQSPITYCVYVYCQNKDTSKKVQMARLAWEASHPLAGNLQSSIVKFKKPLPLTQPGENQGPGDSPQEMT

[19] = biological target: Keap1/Nrf2 (Homo sapiens, UniProt Q14145); assay: Keap1-Nrf2 protein-protein interaction inhibitors, dose response, biochemical, fluorescence polarization, cherry-picked samples (AID 588683)

T3 sequence (Q00975 whole entry): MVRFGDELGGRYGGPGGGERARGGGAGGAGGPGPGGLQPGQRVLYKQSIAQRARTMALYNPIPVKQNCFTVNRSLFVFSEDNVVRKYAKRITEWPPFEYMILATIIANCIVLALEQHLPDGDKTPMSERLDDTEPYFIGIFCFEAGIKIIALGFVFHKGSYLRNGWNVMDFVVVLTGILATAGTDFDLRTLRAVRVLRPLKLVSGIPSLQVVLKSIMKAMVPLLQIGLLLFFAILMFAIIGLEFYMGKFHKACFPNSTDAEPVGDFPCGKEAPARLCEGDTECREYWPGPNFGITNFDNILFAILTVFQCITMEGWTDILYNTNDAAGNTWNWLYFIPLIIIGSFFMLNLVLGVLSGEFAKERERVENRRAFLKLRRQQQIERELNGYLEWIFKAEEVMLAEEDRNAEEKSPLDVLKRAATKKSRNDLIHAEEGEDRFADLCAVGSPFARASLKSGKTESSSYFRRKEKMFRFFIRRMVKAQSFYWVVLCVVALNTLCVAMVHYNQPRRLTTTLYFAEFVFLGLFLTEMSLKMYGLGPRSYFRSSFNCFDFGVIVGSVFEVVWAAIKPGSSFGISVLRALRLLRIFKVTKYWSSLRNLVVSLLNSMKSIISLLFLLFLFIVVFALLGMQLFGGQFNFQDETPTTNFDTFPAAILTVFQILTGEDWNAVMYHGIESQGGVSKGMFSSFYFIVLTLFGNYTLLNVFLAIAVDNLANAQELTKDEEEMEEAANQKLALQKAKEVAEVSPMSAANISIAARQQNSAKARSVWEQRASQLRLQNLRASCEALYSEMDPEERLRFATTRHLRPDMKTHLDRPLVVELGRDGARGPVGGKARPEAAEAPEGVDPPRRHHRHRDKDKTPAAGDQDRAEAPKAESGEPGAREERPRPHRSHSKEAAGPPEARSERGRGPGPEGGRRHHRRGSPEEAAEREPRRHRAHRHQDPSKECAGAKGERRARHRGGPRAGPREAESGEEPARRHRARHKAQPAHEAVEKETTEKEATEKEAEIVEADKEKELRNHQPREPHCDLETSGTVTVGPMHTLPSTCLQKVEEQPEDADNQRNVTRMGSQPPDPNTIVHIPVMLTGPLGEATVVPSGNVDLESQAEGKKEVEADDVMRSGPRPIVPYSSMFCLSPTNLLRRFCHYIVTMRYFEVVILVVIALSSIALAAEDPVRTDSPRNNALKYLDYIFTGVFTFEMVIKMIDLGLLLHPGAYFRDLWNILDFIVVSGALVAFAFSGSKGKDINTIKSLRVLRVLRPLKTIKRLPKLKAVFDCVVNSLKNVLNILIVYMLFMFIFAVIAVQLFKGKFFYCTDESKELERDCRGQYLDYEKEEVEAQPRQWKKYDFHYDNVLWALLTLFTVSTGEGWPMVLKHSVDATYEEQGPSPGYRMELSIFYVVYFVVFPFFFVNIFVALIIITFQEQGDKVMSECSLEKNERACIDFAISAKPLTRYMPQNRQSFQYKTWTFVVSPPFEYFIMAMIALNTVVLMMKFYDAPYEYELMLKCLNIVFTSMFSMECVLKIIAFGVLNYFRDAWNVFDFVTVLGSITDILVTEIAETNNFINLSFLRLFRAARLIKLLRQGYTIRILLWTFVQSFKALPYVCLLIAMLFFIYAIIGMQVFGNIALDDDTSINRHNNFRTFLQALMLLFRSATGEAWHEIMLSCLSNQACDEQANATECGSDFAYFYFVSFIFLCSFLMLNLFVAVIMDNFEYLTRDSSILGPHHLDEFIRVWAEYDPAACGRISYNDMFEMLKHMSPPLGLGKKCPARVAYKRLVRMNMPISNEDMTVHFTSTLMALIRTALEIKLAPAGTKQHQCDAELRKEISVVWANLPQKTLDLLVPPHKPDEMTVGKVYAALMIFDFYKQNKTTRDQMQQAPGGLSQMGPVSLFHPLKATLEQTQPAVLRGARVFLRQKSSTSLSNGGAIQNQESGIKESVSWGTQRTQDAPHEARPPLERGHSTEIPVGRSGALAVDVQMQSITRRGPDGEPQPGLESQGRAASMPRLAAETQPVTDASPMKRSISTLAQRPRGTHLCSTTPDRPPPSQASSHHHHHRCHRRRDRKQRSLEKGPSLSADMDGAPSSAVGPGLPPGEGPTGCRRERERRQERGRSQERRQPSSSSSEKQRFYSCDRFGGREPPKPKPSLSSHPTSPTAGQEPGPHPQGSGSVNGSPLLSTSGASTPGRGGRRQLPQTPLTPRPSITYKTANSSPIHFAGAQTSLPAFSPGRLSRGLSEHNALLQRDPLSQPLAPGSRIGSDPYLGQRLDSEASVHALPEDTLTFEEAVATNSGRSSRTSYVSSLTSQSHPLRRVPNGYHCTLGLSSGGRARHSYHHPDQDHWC
T3 sequence (Q02410 whole entry): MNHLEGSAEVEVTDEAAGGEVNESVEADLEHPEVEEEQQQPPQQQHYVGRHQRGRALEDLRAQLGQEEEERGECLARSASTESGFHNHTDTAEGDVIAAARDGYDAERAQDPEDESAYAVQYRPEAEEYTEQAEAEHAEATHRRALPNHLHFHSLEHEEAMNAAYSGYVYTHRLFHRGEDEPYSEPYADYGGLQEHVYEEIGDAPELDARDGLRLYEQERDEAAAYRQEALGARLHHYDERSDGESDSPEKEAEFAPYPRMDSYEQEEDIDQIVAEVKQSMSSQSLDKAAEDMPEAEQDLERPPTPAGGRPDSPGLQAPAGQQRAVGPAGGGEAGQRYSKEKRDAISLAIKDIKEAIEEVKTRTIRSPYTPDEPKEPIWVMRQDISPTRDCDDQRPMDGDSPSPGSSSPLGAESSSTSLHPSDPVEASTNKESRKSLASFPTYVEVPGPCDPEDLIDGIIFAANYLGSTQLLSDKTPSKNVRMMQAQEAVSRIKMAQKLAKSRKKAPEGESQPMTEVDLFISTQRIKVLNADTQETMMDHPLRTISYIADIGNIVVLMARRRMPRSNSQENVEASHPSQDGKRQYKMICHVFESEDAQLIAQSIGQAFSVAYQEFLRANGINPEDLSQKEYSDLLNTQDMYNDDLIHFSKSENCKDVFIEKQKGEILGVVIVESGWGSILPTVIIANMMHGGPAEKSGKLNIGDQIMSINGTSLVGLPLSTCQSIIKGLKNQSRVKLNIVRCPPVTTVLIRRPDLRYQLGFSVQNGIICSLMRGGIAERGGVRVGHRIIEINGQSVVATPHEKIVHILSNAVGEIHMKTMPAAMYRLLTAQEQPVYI
SUMO E1/E2, sequence (Q9UBE0 whole entry): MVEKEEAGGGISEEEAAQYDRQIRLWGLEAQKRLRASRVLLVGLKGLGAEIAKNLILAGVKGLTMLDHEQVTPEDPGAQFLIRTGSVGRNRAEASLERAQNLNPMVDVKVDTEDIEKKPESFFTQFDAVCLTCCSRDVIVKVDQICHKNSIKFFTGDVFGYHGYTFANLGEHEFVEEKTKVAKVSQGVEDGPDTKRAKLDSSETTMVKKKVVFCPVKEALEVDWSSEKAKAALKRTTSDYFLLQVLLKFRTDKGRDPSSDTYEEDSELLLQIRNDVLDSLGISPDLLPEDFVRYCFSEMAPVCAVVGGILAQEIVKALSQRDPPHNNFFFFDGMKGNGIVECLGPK
SUMO E1/E2, sequence (Q9UBT2 whole entry): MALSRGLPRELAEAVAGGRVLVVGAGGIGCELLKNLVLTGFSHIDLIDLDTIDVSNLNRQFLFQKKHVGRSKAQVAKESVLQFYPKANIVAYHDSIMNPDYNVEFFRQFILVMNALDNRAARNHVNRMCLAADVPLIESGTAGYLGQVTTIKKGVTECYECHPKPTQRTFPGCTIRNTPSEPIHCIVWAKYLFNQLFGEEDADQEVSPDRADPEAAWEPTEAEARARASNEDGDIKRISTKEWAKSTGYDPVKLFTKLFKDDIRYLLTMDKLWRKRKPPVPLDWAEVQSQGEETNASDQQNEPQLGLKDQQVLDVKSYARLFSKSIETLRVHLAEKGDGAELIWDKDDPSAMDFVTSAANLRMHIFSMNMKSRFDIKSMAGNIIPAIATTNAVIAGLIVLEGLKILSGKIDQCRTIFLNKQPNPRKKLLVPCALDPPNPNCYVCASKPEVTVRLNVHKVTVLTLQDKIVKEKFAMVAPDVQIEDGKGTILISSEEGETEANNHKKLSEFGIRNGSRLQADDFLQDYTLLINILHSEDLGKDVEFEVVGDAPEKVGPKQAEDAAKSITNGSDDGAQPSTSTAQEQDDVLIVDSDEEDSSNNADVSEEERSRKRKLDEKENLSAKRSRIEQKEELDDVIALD
SUMO E1/E2, sequence (P63279 whole entry): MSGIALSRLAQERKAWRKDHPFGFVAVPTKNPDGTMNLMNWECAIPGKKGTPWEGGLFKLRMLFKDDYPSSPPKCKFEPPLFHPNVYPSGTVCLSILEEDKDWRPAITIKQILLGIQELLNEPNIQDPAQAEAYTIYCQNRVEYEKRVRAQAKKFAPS
T2 sequence (Q9UBE0 whole entry): as the sequence (Q9UBE0 whole entry) above
T2 sequence (Q9UBT2 whole entry): as the sequence (Q9UBT2 whole entry) above
T4 sequence (P65502 whole entry): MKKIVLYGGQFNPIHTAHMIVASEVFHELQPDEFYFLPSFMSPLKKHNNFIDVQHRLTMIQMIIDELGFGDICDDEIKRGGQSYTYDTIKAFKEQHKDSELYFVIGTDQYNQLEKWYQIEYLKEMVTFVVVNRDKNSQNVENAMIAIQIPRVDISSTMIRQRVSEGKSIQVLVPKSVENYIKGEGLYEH
Protein Rev, sequence (P05866 whole entry): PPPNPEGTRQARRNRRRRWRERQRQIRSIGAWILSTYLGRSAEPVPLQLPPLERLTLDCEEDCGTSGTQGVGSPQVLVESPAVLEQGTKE
Genome polyprotein, sequence (Q2Q167 whole entry): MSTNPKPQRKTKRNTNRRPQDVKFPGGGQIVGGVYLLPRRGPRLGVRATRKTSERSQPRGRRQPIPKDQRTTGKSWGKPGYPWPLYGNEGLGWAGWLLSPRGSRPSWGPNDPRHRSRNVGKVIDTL

In the case of CC(C)(C)c1cc[n+](-c2[n-]c(=O)sc2C=NN=C(S)Nc2ccccc2)cc1, the AC50 [1] is reported as 65.5 µM (active).
For O=C(N/N=C/c1ccc(F)cc1)c1cc(-c2ccco2)nc2ccccc12, the IC50 [2] was > 49.8 µM (not active), the IC50 [3] was 2.97 µM (active) and the IC50 [4] was > 79.4 µM (not active). For the same molecule, the IC50 [5] was 2.28 µM (active), the IC50 [6] was 8.83 µM (active) and the IC50 [7] was 10.6 µM (active). The IC50 [8] was 6.44 µM (active), the IC50 [9] was 2.01 µM (active) and the IC50 [10] was 4.33 µM (active) and 8.06 µM (active). The IC50 [11] was 5.57 µM (active), the IC50 [12] was 14.6 µM (active) and the IC50 [13] was 5.57 µM (active). The IC50 [14] was 10.8 µM (active), the IC50 [15] was 27.1 µM (active) and the IC50 [16] was 108 µM (active). For the same molecule, the IC50 [17] was > 94.1 µM (inactive).
In the case of Fc1ccc(C2=CC(c3ccc(Br)o3)n3ncnc3N2)cc1 (centres undefined), the AC50 [18] is reported as 10.8 µM (active) and the AC50 [19] is reported as 24 µM (active).
